The results in this text go back to PubChem BioAssay (NCI).

SMILES strings stand for the structures.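 All cell lines were grown in 96-well plates and treated with compound for 48 hours. At the TGI there is no net growth.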

What all share (experiment): NCI-60 cell line screen, 48 h
The test system of assay [1] is OVCAR-8 ovarian.
Assay [2] deals with M14 melanoma.
Assay [3] concerns SW-620 colon.
Assay [4] has as its system SF-295 CNS.
The test system of assay [5] is RXF 393 renal.
The subject of assay [6] is U251 CNS.
Assay [7] deals with DU-145 prostate.
Assay [8] relates to SF-539 CNS.
Assay [9] concerns MCF7 breast.
The test system of assay [10] is HL-60(TB) leukemia.

Consider `Nc1nc2cc(CNc3ccc(C(=O)NC(CCC(=O)O)C(=O)O)cc3)ccc2nc1-c1ccccc1` (stereo not given), for which the TGI in assay [1], in [2], in assay [3], in assay [4], in [5] and in assay [6] was over 10 µM each time. Besides, the TGI in assay [7], in assay [8], in assay [9] and in assay [10] was over 10 µM throughout.

As to `COc1cc2c(cc1Cl)n([O-])c(C#N)c(N1CCN(c3ccc([N+](=O)[O-])cc3)CC1)[n+]2=O`, the TGI in assay [1] is 60.1 µM; in [2], over 100 µM; in assay [3], over 100 µM; in assay [4], over 100 µM; in assay [5], over 100 µM; in assay [6], over 100 µM. Further, the TGI in assay [7] is over 100 µM; in assay [8], 44.3 µM; in [9], over 100 µM; in assay [10], over 100 µM.

As to `COC(=O)c1ccccc1CC(Cc1ccccc1)C(=O)OC` (stereo not given), the TGI in [1] is over 100 µM; in [2], over 100 µM; in assay [3], over 100 µM; in assay [4], over 100 µM; in assay [5], 70.9 µM; in [6] it was over 100 µM. For the same molecule, the TGI was over 100 µM in assay [7], over 100 µM in [8], over 100 µM in [9] and 55.9 µM in [10].

In the case of `CN(C)CCn1c(=O)c2ccc3c4c(nn3CCN(C)C)c3ccccc3n(c1=O)c24`, the TGI in assay [1] was 0.288 µM; in [2] it was 1.18 µM; in assay [3], 32 µM; in assay [4], 0.849 µM; in assay [5], 1.26 µM; in assay [6], 1.43 µM. For the same molecule, the TGI in assay [7] was determined as 3.54 µM; in [8], 2.2 µM; in [9] it was 1.05 µM; in assay [10], 2.75 µM.

With `Cc1cc(N=C2C=C(Nc3cc(C)on3)C(=O)c3ccccc32)no1`, the TGI in assay [1] is over 100 µM; in assay [2], over 100 µM; in [3], over 100 µM; in [4] it was over 100 µM; in [5], over 65.9 µM; in assay [6] it was over 95.1 µM. Also, the TGI in assay [7] was over 100 µM; in [8], over 59.7 µM; in assay [9] it was 63 µM; in assay [10] it was over 100 µM.

As to `COC(=O)CCN(CCC(=O)OC)C1CC1`, the TGI in [1], in [2], in assay [3], in assay [4], in assay [5] and in assay [6] was over 100 µM each time. Further, the TGI in assay [7], in [8], in [9] and in assay [10] was over 100 µM in each case.

On to `CCOC(=O)C(C)c1nc2cc(N3CCN(C)CC3)c(F)cc2[nH]c1=O` (stereo not given), for which the TGI in [1], in assay [2], in assay [3], in assay [4], in assay [5] and in assay [6] was over 100 µM throughout. The TGI in assay [7], in assay [8], in assay [9] and in assay [10] was over 100 µM each time.

For `NC(=O)NCCCC(NC(=O)OCCCCCn1ccc(=O)[nH]c1=O)C(=O)O` (stereo not given), the TGI in assay [1], in assay [2], in assay [3], in [4], in assay [5] and in assay [6] was over 100 µM throughout. In addition, the TGI in [7], in [8], in assay [9] and in assay [10] was over 100 µM throughout.

As for `CCOC(=O)C(NCc1cccc(C(F)(F)F)c1)(NC(=O)c1ccccc1)C(F)(F)F` (stereo not given), the TGI in assay [1] is over 100 µM; in [2], over 100 µM; in [3] it was over 100 µM; in assay [4] it was over 100 µM; in [5] it was 72.1 µM; in [6], over 100 µM. Further, the TGI in assay [7], in assay [8], in assay [9] and in assay [10] was over 100 µM throughout.

On to `OCC(O)C(O)C(O)C(/C=N\Nc1ncnc2ccc(Br)cc12)=N/Nc1ncnc2ccc(Br)cc12` (stereo not given), for which the TGI was over 100 µM in [1]; 71.2 µM in [2]; over 100 µM in [3]; over 100 µM in assay [4]; over 100 µM in [5]; over 100 µM in [6]. Further, the TGI in assay [7], in assay [8], in [9] and in [10] was over 100 µM throughout.

As for `CS(=O)(=O)O.[Ag]`, the TGI in assay [1] is over 100 µM; in assay [2] it was 9.44 µM; in assay [3], 19.5 µM; in [4] it was over 100 µM; in assay [5], 42 µM; in assay [6], 30.6 µM. Moreover, the TGI in assay [7] stood at 34.2 µM; in assay [8] it was 32.1 µM; in assay [9], 24.8 µM; in assay [10] it was 11.4 µM.
